Results reported in PMC7217030 (Journal of medicinal chemistry, 2018).

Assays:
[1] = biological target: T1, mineralocorticoid receptor (MR) LBD fused to GAL4 DBD (Homo sapiens, UniProt P08235); assay: GeneBLAzer nuclear hormone receptor specificity assay, agonist mode, MR; format: cell-based; conditions: 0.25 to 25 μM
T1 sequence (P08235 726-964 limits assumed): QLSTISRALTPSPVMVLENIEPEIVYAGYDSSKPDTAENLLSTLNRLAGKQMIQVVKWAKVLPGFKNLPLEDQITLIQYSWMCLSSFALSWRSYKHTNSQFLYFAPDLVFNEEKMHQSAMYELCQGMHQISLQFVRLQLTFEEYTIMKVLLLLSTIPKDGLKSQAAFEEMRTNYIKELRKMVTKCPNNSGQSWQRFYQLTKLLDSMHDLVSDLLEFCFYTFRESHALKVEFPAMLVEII

[2] = biological target: T2, androgen receptor (AR) LBD fused to GAL4 DBD (Homo sapiens, UniProt P10275); assay: GeneBLAzer nuclear hormone receptor specificity assay, agonist mode, AR; format: cell-based; conditions: 0.25 to 25 μM
T2 sequence (P10275 669-900 limits assumed): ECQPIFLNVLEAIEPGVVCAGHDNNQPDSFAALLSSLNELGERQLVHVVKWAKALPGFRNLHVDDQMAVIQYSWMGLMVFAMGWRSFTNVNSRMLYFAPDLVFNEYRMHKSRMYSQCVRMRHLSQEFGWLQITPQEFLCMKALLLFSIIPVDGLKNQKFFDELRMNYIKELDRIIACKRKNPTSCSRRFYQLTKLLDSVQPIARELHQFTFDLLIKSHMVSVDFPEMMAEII

[3] = biological target: T3, thyroid hormone receptor (TRβ) LBD fused to GAL4 DBD (Homo sapiens, UniProt P10828); assay: GeneBLAzer nuclear hormone receptor specificity assay, agonist mode, TRβ; format: cell-based; conditions: 0.25 to 25 μM
T3 sequence (P10828 217-461 limits assumed): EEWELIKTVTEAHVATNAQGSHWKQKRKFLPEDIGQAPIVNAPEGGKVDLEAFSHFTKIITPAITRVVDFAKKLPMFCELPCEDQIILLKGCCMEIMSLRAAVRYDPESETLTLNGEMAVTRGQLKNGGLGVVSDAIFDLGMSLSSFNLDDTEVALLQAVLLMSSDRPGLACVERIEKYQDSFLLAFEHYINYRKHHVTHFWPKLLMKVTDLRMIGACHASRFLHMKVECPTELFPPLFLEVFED

ovariectomized mice [4] = assay: Object placement task; conditions: for time with moved object vs chance, object placement: tested 24 h after training; for preference for moved object vs chance, object placement: within 1 month of ovariectomy
CYP1A2 = biological target: T4, CYP1A2 (Homo sapiens, UniProt P05177); assay: P450-Glo cytochrome P450 inhibition, CYP1A2; format: in vitro ADME; conditions: highest concentration 62.5 μM
T4 sequence (P05177 1-516): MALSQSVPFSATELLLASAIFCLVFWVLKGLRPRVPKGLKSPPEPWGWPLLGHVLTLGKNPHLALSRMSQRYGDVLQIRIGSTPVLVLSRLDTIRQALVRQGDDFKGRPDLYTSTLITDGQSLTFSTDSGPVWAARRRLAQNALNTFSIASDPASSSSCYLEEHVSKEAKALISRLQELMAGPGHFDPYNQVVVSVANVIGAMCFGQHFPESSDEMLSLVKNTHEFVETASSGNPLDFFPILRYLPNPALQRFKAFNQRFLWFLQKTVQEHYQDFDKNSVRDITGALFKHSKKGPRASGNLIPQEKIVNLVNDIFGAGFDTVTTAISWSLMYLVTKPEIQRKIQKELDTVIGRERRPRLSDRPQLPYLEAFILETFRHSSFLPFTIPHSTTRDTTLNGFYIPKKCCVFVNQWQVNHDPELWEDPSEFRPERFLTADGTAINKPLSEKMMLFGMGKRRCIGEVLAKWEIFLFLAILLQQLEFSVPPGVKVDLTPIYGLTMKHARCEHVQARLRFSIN

[5] = biological target: T5, vitamin D receptor (VDR) LBD fused to GAL4 DBD (Homo sapiens, UniProt P11473); assay: GeneBLAzer nuclear hormone receptor specificity assay, agonist mode, VDR; format: cell-based; conditions: 0.25 to 25 μM
T5 sequence (P11473 127-423 limits assumed): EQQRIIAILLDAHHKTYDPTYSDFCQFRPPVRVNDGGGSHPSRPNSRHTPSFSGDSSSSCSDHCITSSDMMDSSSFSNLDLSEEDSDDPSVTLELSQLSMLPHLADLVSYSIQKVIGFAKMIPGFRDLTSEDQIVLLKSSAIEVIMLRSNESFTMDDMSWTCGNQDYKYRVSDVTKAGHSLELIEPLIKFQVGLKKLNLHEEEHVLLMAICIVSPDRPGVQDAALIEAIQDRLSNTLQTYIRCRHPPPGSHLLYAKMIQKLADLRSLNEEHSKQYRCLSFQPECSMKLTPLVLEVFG

[6] = biological target: T6, progesterone receptor (PR) LBD fused to GAL4 DBD (Homo sapiens, UniProt P06401); assay: GeneBLAzer nuclear hormone receptor specificity assay, agonist mode, PR; format: cell-based; conditions: 0.25 to 25 μM
T6 sequence (P06401 679-913 limits assumed): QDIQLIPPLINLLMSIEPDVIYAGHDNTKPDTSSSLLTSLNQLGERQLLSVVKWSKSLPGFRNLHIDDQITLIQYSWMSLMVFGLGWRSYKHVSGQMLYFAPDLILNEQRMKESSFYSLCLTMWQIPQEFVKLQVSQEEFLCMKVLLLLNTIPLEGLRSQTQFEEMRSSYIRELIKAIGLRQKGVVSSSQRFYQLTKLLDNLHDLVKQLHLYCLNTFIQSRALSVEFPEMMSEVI

[7] = biological target: T7, peroxisome proliferator-activated receptor (PPARδ) LBD fused to GAL4 DBD (Homo sapiens, UniProt Q03181); assay: GeneBLAzer nuclear hormone receptor specificity assay, agonist mode, PPARδ; format: cell-based; conditions: 0.25 to 25 μM
T7 sequence (Q03181 211-439 limits assumed): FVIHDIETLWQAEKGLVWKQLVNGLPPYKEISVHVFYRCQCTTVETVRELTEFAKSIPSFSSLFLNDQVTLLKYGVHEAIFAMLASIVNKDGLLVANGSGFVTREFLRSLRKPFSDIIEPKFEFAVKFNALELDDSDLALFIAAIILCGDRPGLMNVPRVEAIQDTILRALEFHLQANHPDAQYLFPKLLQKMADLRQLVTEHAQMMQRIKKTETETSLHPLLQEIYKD

[8] = biological target: T8, full length and native ERα (Homo sapiens, UniProt P03372); assay: Cell-based transcriptional assay, ERα antagonist mode; conditions: concentrations up to 10 μM
T8 sequence (P03372 1-595): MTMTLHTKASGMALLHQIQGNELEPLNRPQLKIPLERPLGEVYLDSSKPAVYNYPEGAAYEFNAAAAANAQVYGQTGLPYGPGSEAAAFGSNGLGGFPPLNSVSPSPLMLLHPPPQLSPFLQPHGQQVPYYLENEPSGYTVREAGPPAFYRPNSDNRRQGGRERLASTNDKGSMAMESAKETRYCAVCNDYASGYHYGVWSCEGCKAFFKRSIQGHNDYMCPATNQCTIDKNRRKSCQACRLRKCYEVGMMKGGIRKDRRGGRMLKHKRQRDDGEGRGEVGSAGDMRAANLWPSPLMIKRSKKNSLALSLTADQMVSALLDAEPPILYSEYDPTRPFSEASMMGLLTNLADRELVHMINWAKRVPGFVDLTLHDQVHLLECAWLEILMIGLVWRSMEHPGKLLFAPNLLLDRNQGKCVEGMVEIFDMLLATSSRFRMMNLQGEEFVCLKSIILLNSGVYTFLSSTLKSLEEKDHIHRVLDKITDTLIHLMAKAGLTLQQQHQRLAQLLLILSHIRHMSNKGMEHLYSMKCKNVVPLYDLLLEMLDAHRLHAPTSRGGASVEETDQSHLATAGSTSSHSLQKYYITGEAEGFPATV

ovariectomized mice [9] = assay: Object recognition task; conditions: for preference for novel object vs chance, object recognition: IP injection
[10] = biological target: T9, glucocorticoid receptor (GR) LBD fused to GAL4 DBD (Homo sapiens, UniProt P04150); assay: GeneBLAzer nuclear hormone receptor specificity assay, agonist mode, GR; format: cell-based; conditions: 0.25 to 25 μM
T9 sequence (P04150 524-758 limits assumed): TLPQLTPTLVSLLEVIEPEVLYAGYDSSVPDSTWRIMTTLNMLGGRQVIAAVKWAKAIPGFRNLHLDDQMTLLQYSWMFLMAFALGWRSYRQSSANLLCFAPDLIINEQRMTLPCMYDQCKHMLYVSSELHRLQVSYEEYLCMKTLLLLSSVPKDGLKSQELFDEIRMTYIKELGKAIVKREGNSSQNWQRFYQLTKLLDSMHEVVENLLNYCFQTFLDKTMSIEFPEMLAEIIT

CYP2D6 = CYP2D6 (Homo sapiens, UniProt P10635); assay: P450-Glo cytochrome P450 inhibition, CYP2D6; format: in vitro ADME; conditions: highest concentration 62.5 μM
Sequence of CYP2D6 (P10635 whole entry, the tested form may be a part): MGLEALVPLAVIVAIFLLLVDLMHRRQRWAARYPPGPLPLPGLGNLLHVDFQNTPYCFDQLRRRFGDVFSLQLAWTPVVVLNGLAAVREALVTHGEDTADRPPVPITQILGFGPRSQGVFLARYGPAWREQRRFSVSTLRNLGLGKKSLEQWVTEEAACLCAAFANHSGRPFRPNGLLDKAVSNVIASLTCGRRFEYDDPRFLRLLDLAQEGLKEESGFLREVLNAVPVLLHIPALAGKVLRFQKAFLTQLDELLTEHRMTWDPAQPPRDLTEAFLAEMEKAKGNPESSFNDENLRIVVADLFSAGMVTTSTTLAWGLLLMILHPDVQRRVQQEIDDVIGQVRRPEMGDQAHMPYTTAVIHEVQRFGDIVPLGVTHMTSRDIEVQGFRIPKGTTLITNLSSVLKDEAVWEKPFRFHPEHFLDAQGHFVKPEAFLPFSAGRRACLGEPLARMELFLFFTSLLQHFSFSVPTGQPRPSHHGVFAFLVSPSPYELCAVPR

ERα LBD = biological target: T10, ERα LBD (Homo sapiens, UniProt P03372); assay: LanthaScreen TR-FRET coactivator; format: biochemical
T10 sequence (P03372 311-547 limits assumed): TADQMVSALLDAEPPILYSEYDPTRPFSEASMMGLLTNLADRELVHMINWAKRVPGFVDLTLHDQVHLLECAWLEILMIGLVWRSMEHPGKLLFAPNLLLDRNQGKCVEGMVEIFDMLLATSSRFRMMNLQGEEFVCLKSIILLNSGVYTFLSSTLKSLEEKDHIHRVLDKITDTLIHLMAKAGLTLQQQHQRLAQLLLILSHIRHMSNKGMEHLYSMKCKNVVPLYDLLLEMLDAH

OC[C@H]1CC[C@H](c2ccc(O)cc2)CC1 [ISP358–2]
agonist activity at MR [1]: not an agonist | agonist activity at AR [2]: not an agonist | agonist activity at TRβ [3]: not an agonist | time with moved object vs chance, object placement (ovariectomized mice [4]; IP injection, 0.5 mg/kg): spent significantly more time than chance with the moved object | time with moved object vs chance, object placement (ovariectomized mice [4]; IP injection, 5 mg/kg): spent significantly more time than chance with the moved object | time with moved object vs chance, object placement (ovariectomized mice [4]; dorsal hippocampal infusion, 10 pg/hemisphere): did not spend significantly more time than chance with the moved object | time with moved object vs chance, object placement (ovariectomized mice [4]; dorsal hippocampal infusion, 100 pg/hemisphere): spent significantly more time than chance with the moved object | time with moved object vs chance, object placement (ovariectomized mice [4]; dorsal hippocampal infusion, 1 ng/hemisphere): spent significantly more time than chance with the moved object | preference for moved object vs chance, object placement (ovariectomized mice [4]; oral gavage, 0.5 mg/kg): exhibited a significant preference for the moved object relative to chance | preference for moved object vs chance, object placement (ovariectomized mice [4]; oral gavage, 5 mg/kg): exhibited a significant preference for the moved object relative to chance | spatial memory consolidation after long-term estrogen deprivation, object placement (ovariectomized mice [4]; oral gavage, same doses, 4 months after ovariectomy, preliminary): did not enhance spatial memory consolidation | inhibition of CYP1A2 (CYP1A2): no inhibition | agonist activity at VDR [5]: not an agonist | agonist activity at PR [6]: not an agonist | agonist activity at PPARδ [7]: not an agonist | ERα antagonist activity [8]: No measurable antagonist activity | preference for novel object vs chance, object recognition (ovariectomized mice [9]; 0.5 mg/kg, tested 48 h after training): exhibited a significant preference for the novel object relative to chance | preference for novel object vs chance, object recognition (ovariectomized mice [9]; 5 mg/kg, tested 48 h after training): somewhat of a trend for the 5 mg/kg ISP358–2 to prefer the novel object | time with novel object vs chance, object recognition (ovariectomized mice [9]; dorsal hippocampal infusion, 10 pg/hemisphere, tested 48 h after training): Neither the vehicle nor 10 pg of ISP358–2 groups showed a preference for the novel object | time with novel object vs chance, object recognition (ovariectomized mice [9]; dorsal hippocampal infusion, 100 pg/hemisphere, tested 48 h after training): spent significantly more time than chance with the novel object | time with novel object vs chance, object recognition (ovariectomized mice [9]; dorsal hippocampal infusion, 1 ng/hemisphere, tested 48 h after training): spent significantly more time than chance with the novel object | time with novel object vs chance, object recognition (ovariectomized mice [9]; oral gavage, 0.5 mg/kg): spent significantly more time with the novel object relative to chance | time with novel object vs chance, object recognition (ovariectomized mice [9]; oral gavage, 5 mg/kg): spent significantly more time with the novel object relative to chance | agonist activity at GR [10]: not an agonist | inhibition of CYP2D6 (CYP2D6): no inhibition | EC50 (ERα LBD): 2940 nM
